The source of these data is ChEMBL document CHEMBL4483862, “Open-source discovery of chemical leads for next-generation chemoprotective antimalarials” (2018).

This test has as its system Plasmodium berghei. The test is described as follows: Luciferase/luciferin-expressing antifolate-resistant parasites were used to infect a culture of HepG2 cells that were pre-incubated with compounds. Infected hepatocytes emit light due to the luciferase reaction. Assay results are presented as the percent inhibition of light emission compared to control. […]. The following applies: sporozoite; for IC90: read-out: LUCIFERASE INFECTION ASSAY - IC90. The format is functional.

[1] abbreviates: read-out: LUCIFERASE INFECTION ASSAY - IC50.

What is called IC50 is the midpoint of a concentration-inhibition curve. As a reminder, the IC90 is the point of the concentration-response curve where the effect stands at 90%. On to `C=C(C)[C@@H]1CC=C(CN2CCC3(CC2)C(=O)N(CCCc2cccnc2)C(=O)N3CC)CC1`, for which the IC90 was determined as 6.89 µM. The IC50 (HEPG2TOX_HILL_SLOPE 0.525, HEPG2TOX_R_SQUARED 0.846, PBLUC_HILL_SLOPE 1.68, PBLUC_R_SQUARED 0.809, read-out: LUCIFERASE INFECTION ASSAY - IC50) amounted to 1.86 µM.

In the case of `Cc1nn(-c2ccccc2)c(Cl)c1C(=O)N1CCN(C(c2ccccc2)c2ccccc2)CC1`, the IC90 is above 10 µM. The IC50 under setting [1] is above 10 µM.

On to `Cc1onc(-c2ccccc2Cl)c1C(=O)ON=C1C2CC3CC(C2)CC1C3`, for which the IC90 was above 8.57 µM. Moreover, the IC50 (PBLUC_HILL_SLOPE 2.42, PBLUC_R_SQUARED 0.273, read-out: LUCIFERASE INFECTION ASSAY - IC50) was 5.03 µM.

For the compound `N#C/C(=N\Nc1ccc(F)cc1)C(=O)c1ccc(Cl)cc1`, the IC90 is above 10.9 µM. The IC50 under setting [1] came to 9.59 µM.

For `COC(=O)c1cc2c(N)c(C(=O)c3ccc(Cl)cc3)sc2nc1C(OC)OC`, the IC90 was above 7.84 µM. Moreover, the IC50 under setting [1] is above 7.84 µM.

As to `CCCCCc1ccc(-c2nnc(SCC(=O)c3ccccc3)[nH]2)cc1`, the IC90 is above 9.03 µM. Moreover, for the setting “PBLUC_HILL_SLOPE 2.65, PBLUC_R_SQUARED 0.501, read-out: LUCIFERASE INFECTION ASSAY - IC50”, the IC50 was above 9.03 µM.

As to `O=C(Cc1cccs1)Nc1ccc(Cl)c(C(F)(F)F)c1`, the concentration for an effect of 90% (IC90) was above 10 µM. Besides, under setting [1], the IC50 was above 10 µM.

As to `CCn1c(NC(=O)c2c(C)nn(-c3ccccc3)c2C)nc2ccccc21`, the IC90 worked out at 9.89 µM. For the same compound, under “HEPG2TOX_HILL_SLOPE 11.2, HEPG2TOX_R_SQUARED 0.651, PBLUC_HILL_SLOPE 20.8, PBLUC_R_SQUARED 0.508, read-out: LUCIFERASE INFECTION ASSAY - IC50”, the half-maximal inhibitory concentration (IC50) was found to be 8.9 µM.

On to `Cc1ccc(S(=O)(=O)Oc2cc(C)ccc2C)cc1`, for which the IC90 is above 11.9 µM. Also, the concentration for half-maximal inhibition (IC50) (PBLUC_HILL_SLOPE 0.836, PBLUC_R_SQUARED 0.347, read-out: LUCIFERASE INFECTION ASSAY - IC50) was determined as 4.27 µM.

In the case of `c1ccc(CSc2ncc(-c3nnnn3-c3ccccc3)c(-c3ccccc3)n2)cc1`, the IC90 was above 7.81 µM. For the same compound, the IC50 (FFLUC_HILL_SLOPE 10.9, FFLUC_R_SQUARED 0.438, read-out: LUCIFERASE INFECTION ASSAY - IC50) is above 7.81 µM.

Take `CCOc1ccc2nc3cc(N)ccc3c(N)c2c1` [ETHACRIDINE]: the IC90 was above 9.61 µM. The IC50 (HEPG2TOX_HILL_SLOPE 3.77, HEPG2TOX_R_SQUARED 0.987, read-out: LUCIFERASE INFECTION ASSAY - IC50) was above 9.61 µM.

With `O=c1nc(-c2ccc3c(c2)OCCO3)[nH]c2sc(-c3ccccc3)cc12`, the IC90 amounted to 4.31 µM. The IC50 (HEPG2TOX_HILL_SLOPE 1.86, HEPG2TOX_R_SQUARED 0.902, PBLUC_HILL_SLOPE 1.77, PBLUC_R_SQUARED 0.594, read-out: LUCIFERASE INFECTION ASSAY - IC50) is 1.25 µM.

As for `CC[n+]1ccccc1C=Cc1ccc(N(C)C)cc1`, the IC90 stood at 6.2 µM. For the same compound, the IC50 (HEPG2TOX_HILL_SLOPE 3.25, HEPG2TOX_R_SQUARED 0.92, PBLUC_HILL_SLOPE 1.1, PBLUC_R_SQUARED 0.874, read-out: LUCIFERASE INFECTION ASSAY - IC50) came out at 0.835 µM.

As to `Cc1cc(N(Cc2ccc(C(C)C)cc2)C2CC2)n2ncnc2n1`, the IC90 was above 10 µM. Also, the IC50 (HEPG2TOX_HILL_SLOPE 2.35, HEPG2TOX_R_SQUARED 0.908, PBLUC_HILL_SLOPE 2.49, PBLUC_R_SQUARED 0.764, read-out: LUCIFERASE INFECTION ASSAY - IC50) came out at 4.95 µM.

Take `CCCCNC(=O)c1c(NC(=O)c2ccc(F)cc2F)nc2ccc(C)cn12`: the IC90 was 3.01 µM. Moreover, the IC50 (FFLUC_HILL_SLOPE 10.6, FFLUC_R_SQUARED 0.36, HEPG2TOX_HILL_SLOPE 2.09, HEPG2TOX_R_SQUARED 0.949, PBLUC_HILL_SLOPE 14.8, PBLUC_R_SQUARED 0.468, read-out: LUCIFERASE INFECTION ASSAY - IC50) amounted to 2.6 µM.

With `COc1ccccc1C(=O)Nc1nonc1-c1ccc2c(c1)CCCC2`, the IC90 was above 9.45 µM. Besides, under “PBLUC_HILL_SLOPE 13.6, PBLUC_R_SQUARED 0.311, read-out: LUCIFERASE INFECTION ASSAY - IC50”, the IC50 was 9.15 µM.

As for `Cc1cc(Cl)cc(/C=N/NC(=S)NC(C)(C)C)c1O`, the IC90 was determined as 3.97 µM. Moreover, under setting [1], the IC50 was 3.66 µM.

On to `Cc1cc(C)n(-c2ccc(NC(=O)c3ccc(CN4CCCCC4)cc3)cn2)n1`, for which the IC90 is above 10 µM. For the setting “HEPG2TOX_HILL_SLOPE 1.19, HEPG2TOX_R_SQUARED 0.854, PBLUC_HILL_SLOPE 17.4, PBLUC_R_SQUARED 0.154, read-out: LUCIFERASE INFECTION ASSAY - IC50”, the IC50 was determined as 9.79 µM.

Take `O=C1/C(=N\O)c2ccccc2N1Cc1cc(C(F)(F)F)cc(C(F)(F)F)c1`: the IC90 is 2.62 µM. The IC50 (HEPG2TOX_HILL_SLOPE 1.63, HEPG2TOX_R_SQUARED 0.96, PBLUC_HILL_SLOPE 1.81, PBLUC_R_SQUARED 0.672, read-out: LUCIFERASE INFECTION ASSAY - IC50) came to 0.78 µM.

With `CC(C)(C)OC(=O)N1CCc2nc(NC(=O)c3csc(-c4ccco4)n3)sc2C1`, the IC90 was above 10 µM. For the same compound, the IC50 (PBLUC_HILL_SLOPE 10.5, PBLUC_R_SQUARED 0.574, read-out: LUCIFERASE INFECTION ASSAY - IC50) stood at 9.17 µM.

On to `C=CCn1c(-c2ccc(Cl)cc2Cl)csc1=Nc1ccc(NC(C)=O)cc1`, for which the concentration for an effect of 90% (IC90) was 6.44 µM. Further, the IC50 (PBLUC_HILL_SLOPE 2.47, PBLUC_R_SQUARED 0.472, read-out: LUCIFERASE INFECTION ASSAY - IC50) stood at 2.64 µM.

Take `Cc1ccc(Oc2c(C)nc(-c3ccccc3)nc2O)cc1`: the IC90 worked out at 1.76 µM. In addition, the IC50 (PBLUC_HILL_SLOPE 1.81, PBLUC_R_SQUARED 0.898, read-out: LUCIFERASE INFECTION ASSAY - IC50) was 0.524 µM.

For `CO/N=C1\CCCc2c(C(=O)NNS(=O)(=O)c3ccccc3Cl)sc(SC)c21`, the IC90 was above 7.17 µM. Also, the IC50 under setting [1] is above 7.17 µM.

With `O=C(Nc1cccc(F)c1)N1CCC2(CC1)OCc1cc(-c3ccco3)ccc1O2`, the IC90 was above 8.08 µM. The IC50 under setting [1] was above 8.08 µM.

Regarding `Cc1cc(NC(=O)C(C)Sc2ncnc3c2oc2ccccc23)no1` (stereo unspecified), the IC90 is above 10 µM. In addition, under “PBLUC_HILL_SLOPE 2.18, PBLUC_R_SQUARED 0.0347, read-out: LUCIFERASE INFECTION ASSAY - IC50”, the IC50 is above 10 µM.

With `Cc1cc(C(C)(C)C)cc(C)c1CCNC(=O)NCCNC(=O)c1ccco1`, the IC90 is above 10 µM. Moreover, where the note is “PBLUC_HILL_SLOPE 2.38, PBLUC_R_SQUARED 0.642, read-out: LUCIFERASE INFECTION ASSAY - IC50”, the IC50 stood at 5.63 µM.

`CCCC/N=C1\SCC(c2c[nH]c3ccccc23)=NN1C`: the IC90 is above 10 µM. For the setting “HEPG2TOX_HILL_SLOPE 0.211, HEPG2TOX_R_SQUARED 0.832, read-out: LUCIFERASE INFECTION ASSAY - IC50”, the IC50 is above 10 µM.

In the case of `c1ccc(Oc2ccccc2-c2cn3c(-c4ccncc4)cnc3cn2)cc1`, the IC90 was 8.82 µM. In addition, the IC50 (PBLUC_HILL_SLOPE 3.74, PBLUC_R_SQUARED 0.758, read-out: LUCIFERASE INFECTION ASSAY - IC50) was found to be 4.9 µM.

For `Cn1ccnc1SCC(=O)Nc1ccc(C(=O)Nc2ncccc2O)cc1`, the concentration for an effect of 90% (IC90) was 5.1 µM. Also, the IC50 (PBLUC_HILL_SLOPE 5, PBLUC_R_SQUARED 0.401, read-out: LUCIFERASE INFECTION ASSAY - IC50) came out at 3.28 µM.

`CC(C)Oc1cccc(Nc2nccc3[nH]c(-c4ccccc4)cc23)c1`: the IC90 worked out at 7.93 µM. Also, the IC50 (HEPG2TOX_HILL_SLOPE 8.91, HEPG2TOX_R_SQUARED 0.686, PBLUC_HILL_SLOPE 1.92, PBLUC_R_SQUARED 0.493, read-out: LUCIFERASE INFECTION ASSAY - IC50) was found to be 2.53 µM.

Regarding `CC(=O)Nc1cnc(-c2ccccc2N(C)C)cn1`, the IC90 is above 12.9 µM. Moreover, under setting [1], the IC50 was above 12.9 µM.

Consider `CCOc1cc(C(=O)NCCNC(=O)C(C)C)cc(OCC)c1OCC`, for which the 90% effect concentration (IC90) was above 10 µM. Under setting [1], the concentration for half-maximal inhibition (IC50) was above 10 µM.

On to `Fc1cccc(-c2nc3ccnc(NCc4ccccc4)c3[nH]2)c1`, for which the IC90 stood at 4.56 µM. Also, the IC50 (HEPG2TOX_HILL_SLOPE 6.86, HEPG2TOX_R_SQUARED 0.629, PBLUC_HILL_SLOPE 1.32, PBLUC_R_SQUARED 0.696, read-out: LUCIFERASE INFECTION ASSAY - IC50) was found to be 0.868 µM.

As to `Cc1cc(C(=O)Cn2cnc3ccc([N+](=O)[O-])cc3c2=O)c(C)n1CC1COc2ccccc2O1` (stereo unspecified), the IC90 was above 10 µM. Besides, under setting [1], the IC50 was above 10 µM.

As to `COc1cc(/C=N/NC(=O)c2cc(C)n(-c3ccccc3)c2C)ccc1OCC(=O)Nc1c(C)cc(C)cc1C`, the 90% effect concentration (IC90) was 8.35 µM. Also, where the note is “HEPG2TOX_HILL_SLOPE 0.635, HEPG2TOX_R_SQUARED 0.731, PBLUC_HILL_SLOPE 5.43, PBLUC_R_SQUARED 0.0161, read-out: LUCIFERASE INFECTION ASSAY - IC50”, the IC50 was 5.57 µM.

On to `COc1ccc(NC(=O)c2cccc(S(=O)(=O)N(Cc3ccccc3)c3ccccc3Cl)c2)cn1`, for which the IC90 was above 10 µM. The IC50 (PBLUC_HILL_SLOPE 11, PBLUC_R_SQUARED 0.0841, read-out: LUCIFERASE INFECTION ASSAY - IC50) was 9.79 µM.

For the compound `CCOc1ccccc1OCC(=O)Nc1nc(-c2cc(C)n(-c3ccc(F)cc3)c2C)cs1`, the IC90 was above 10 µM. Moreover, the IC50 under setting [1] is above 10 µM.

`CCOc1ccc(C(C)=O)cc1CSc1nc2scc(-c3ccccc3)c2c(=O)n1C`: the IC90 is above 10 µM. Moreover, the half-maximal inhibitory concentration (IC50) (PBLUC_HILL_SLOPE 1.32, PBLUC_R_SQUARED 0.21, read-out: LUCIFERASE INFECTION ASSAY - IC50) was above 10 µM.
